Experimental data as given in patent US11026944B2, “Compositions and methods for treating insomnia” (Eisai R&D Management Co., Ltd., priority 2014, dated 2021).
Read-outs that look alike come from different tables or passages of the source.

Key:
[1] = Multiple ascending dose study (002 Study): plasma PK; format: in vivo, human; conditions: for concentration at 8 h / concentration at 10 h / AUC(0-t) / Cmax / Tmax / half-life: human, oral; for concentration at 8 h: plasma at 8 h, read-out: C8 Mean(SD); for concentration at 10 h: plasma at 10 h, read-out: C10 Mean(SD); for AUC(0-t) / Cmax / Tmax / half-life: plasma; for AUC(0-t): read-out: AUC(0-24) Mean(SD); for Cmax: read-out: Cmax Mean(SD); for Tmax: read-out: tmax Median
Protocol: A total of 48 healthy adult subjects (18 to 55 years) were to be enrolled into 1 of 6 cohorts sequentially in a gradual dose escalation manner, and randomized to receive either compound A or compound A-matched placebo in the evening 30 minutes before habitual bedtime, and after 3 hours fasting, for 14 days. Each cohort was to comprise 6 compound A-treated subjects and 2 placebo-treated subjects. Blood samples were collected for PK analysis at prespecified timepoints, and PD assessments were conducted.
Blood samples for determination of plasma concentrations of compound A were collected at Day 1 predose and postdose 0.5 (30 minutes), 1, 1.5, 2, 3, 4, 5, 6, 8, 10, and 12 hours; Days 2 to 13: predose; Day 14: predose and postdose 0.5 (30 minutes), 1, 1.5, 2, 3, 4, 5, 6, 8, 10, and 12 hours; Day 15: 24 hours after Day 14 dose; Days 16 to 19: 36, 60, 84, and 108 hours after Day 14 dose; Day 21, 24, 26, 28: As close as possible to 156, 228, 276, and 324 hours after Day 14 dose. Plasma concentrations of compound A were measured in the same manner as described in Example 1 and the above noncompartmental plasma PK parameters were calculated for compound A.
Compound A capsules and compound A-matched placebo capsules were available in strengths of 2.5 mg, 10 mg, and 50 mg. All study drugs were administered as daily doses using one or more compound A-capsules or compound A-matched placebo capsules due to the test dose.

[2] = test system: healthy subjects; test: 001 Study Part A: sleepiness measures KSS, DSST, PVT; format: in vivo, human
Protocol: For Part A, 64 healthy subjects were enrolled into cohorts sequentially in a gradual dose escalation manner, to receive either compound A or placebo, and stratified by gender. Each cohort comprised six compound A- and two placebo-treated subjects. All study drugs were administered as single doses using one or more compound A-capsules or compound A-matched placebo capsules due to the test dose. After screening, subjects underwent baseline procedures and randomization on Day-2. Subjects were dosed on Day 1 in the morning after an overnight fast, 1 hour after lights-on. PK blood samples were collected at prespecified timepoints, and PD assessments were performed. Subjects were administered assessments on Day 1 predose and every 2 hours from 2 to 12 hours postdose, and each morning on Days 2 to 6.
These assessments included the Karolinska Sleepiness Scale (KSS), Digit Symbol Substitution Test (DSST), and Psychomotor Vigilance Test (PVT) in order to assess daytime sleepiness, level of alertness, and ability to concentrate. Waketime Questionnaires were administered after PD assessments each morning on Days 1 to Day 6. Time and duration of naps was recorded on Days 1 and 2. Safety was monitored throughout the study. […]

[3] = Single daily dose PK in human subjects (summary statements); format: in vivo; conditions: plasma, oral; for Cmax: read-out: mean maximum plasma concentration (Cmax); for half-life: read-out: mean t1/2 (converted); for Tmax: read-out: mean time to maximum plasma concentration (tmax)
[4] = 2.5 mg, Day 1, 2.5 mg once daily in the evening
[5] = 2.5 mg, Day 14, 2.5 mg once daily for 14 days
[6] = 5 mg, Day 1, 5 mg once daily in the evening
[7] = 5 mg, Day 14, 5 mg once daily for 14 days
[8] = 10 mg, Day 1, 10 mg once daily in the evening
[9] = 10 mg, Day 14, 10 mg once daily for 14 days
[10] = 25 mg, Day 1, 25 mg once daily in the evening
[11] = 25 mg, Day 14, 25 mg once daily for 14 days
[12] = 50 mg, Day 1, 50 mg once daily in the evening
[13] = 50 mg, Day 14, 50 mg once daily for 14 days
[14] = 75 mg, Day 1, 75 mg once daily in the evening
[15] = 75 mg, Day 14, 75 mg once daily for 14 days

Cc1ncc(OC[C@@]2(c3cccc(F)c3)C[C@H]2C(=O)Nc2ccc(F)cn2)c(C)n1 [Compound A, (1R,2 S)-2-(((2,4-dimethylpyrimidin-5-yl)oxy)methyl)-2-(3-fluorophenyl)-N-(5-fluoropyridin-2-yl) cyclopropanecarboxamide]
Accumulation ([1]; 14 days once daily): lower than predicted by the terminal half-life | Cmax Mean(SD) ([1]; Day 1, 25 mg once daily in the evening): 92.0(24.0) ng/mL | t1/2 Mean(SD) ([1]; Day 14, 50 mg once daily for 14 days): 55.5(21.3) h | AUC(0-24 h) dose proportionality ([1]; dose-normalized data, Day 1): increased slightly less than in proportion to dose | Cmax dose proportionality ([1]; dose-normalized data, Day 1 and Day 14): increased slightly less than in proportion to dose | AUC(0-24 h) dose proportionality ([1]; dose-normalized data, Day 14): increased in approximate proportion to dose | concentration at 8 h ([1]; Day 1, 2.5 mg): 2.33 ng/mL | concentration at 8 h ([1]; Day 1, 5 mg): 4.4 ng/mL | concentration at 8 h ([1]; Day 1, 10 mg): 8.51 ng/mL | concentration at 8 h ([1]; Day 1, 25 mg): 24.1 ng/mL | concentration at 8 h ([1]; Day 1, 50 mg): 38.1 ng/mL | concentration at 8 h ([1]; Day 1, 75 mg): 54.5 ng/mL | concentration at 10 h ([1]; Day 1, 2.5 mg): 2.04 ng/mL | concentration at 10 h ([1]; Day 1, 5 mg): 3.63 ng/mL | concentration at 10 h ([1]; Day 1, 10 mg): 7.72 ng/mL | concentration at 10 h ([1]; Day 1, 25 mg): 19.8 ng/mL | concentration at 10 h ([1]; Day 1, 50 mg): 32.9 ng/mL | concentration at 10 h ([1]; Day 1, 75 mg): 44.2 ng/mL | AUC(0-t) [1, 4]: 59.4 ng·h/mL | Cmax [1, 4]: 10.1 ng/mL | Tmax [1, 4]: 2.02 h | AUC(0-t) [1, 5]: ~120 ng·h/mL | Cmax [1, 5]: ~15 ng/mL | half-life ([1]; 2.5 mg, Day 14, 2.5 mg once daily for 14 days, read-out: t1/2 Mean(SD) (converted)): ~44 h | Tmax [1, 5]: ~2 h | AUC(0-t) [1, 6]: 108 ng·h/mL | Cmax [1, 6]: 19.4 ng/mL | Tmax [1, 6]: 1.25 h | AUC(0-t) [1, 7]: ~190 ng·h/mL | Cmax [1, 7]: ~24 ng/mL | half-life ([1]; 5 mg, Day 14, 5 mg once daily for 14 days, read-out: t1/2 Mean(SD) (converted)): ~46 h | Tmax [1, 7]: ~1 h | AUC(0-t) [1, 8]: 187 ng·h/mL | Cmax [1, 8]: 30.4 ng/mL | Tmax [1, 8]: 3.25 h | AUC(0-t) [1, 9]: ~360 ng·h/mL | Cmax [1, 9]: ~47 ng/mL | half-life ([1]; 10 mg, Day 14, 10 mg once daily for 14 days, read-out: t1/2 Mean(SD) (converted)): ~55 h | Tmax [1, 9]: ~2 h | half-life ([1]; 10 mg, doses of 10 mg and higher, following Day 14 dosing, read-out: mean terminal half-life (converted)): ~55 h | AUC(0-t) [1, 10]: 549 ng·h/mL | Tmax [1, 10]: 1.5 h | AUC(0-t) [1, 11]: 1100 ng·h/mL | Cmax [1, 11]: 107 ng/mL | half-life ([1]; 25 mg, Day 14, 25 mg once daily for 14 days, read-out: t1/2 Mean(SD) (converted)): 50.6 h | Tmax [1, 11]: 3 h | half-life ([1]; 50 mg, 50-mg dose, read-out: effective half-life based on accumulation (converted)): 28 h | AUC(0-t) [1, 12]: 931 ng·h/mL | Cmax [1, 12]: 199 ng/mL | Tmax [1, 12]: 2 h | AUC(0-t) [1, 13]: 2300 ng·h/mL | Cmax [1, 13]: 220 ng/mL | Tmax [1, 13]: 2.02 h | half-life ([1]; 75 mg, 75-mg dose, read-out: effective half-life based on accumulation (converted)): 39.3 h | AUC(0-t) [1, 14]: 1260 ng·h/mL | Cmax [1, 14]: 223 ng/mL | Tmax [1, 14]: 3 h | AUC(0-t) [1, 15]: 3790 ng·h/mL | Cmax [1, 15]: 420 ng/mL | half-life ([1]; 75 mg, Day 14, 75 mg once daily for 14 days, read-out: t1/2 Mean(SD) (converted)): 56.2 h | Tmax [1, 15]: 2 h | half-life ([1]; 2.5- and 5-mg doses, average, read-out: terminal half-life (converted)): ~45 h | half-life ([1]; doses ranging from 2.5 to 25 mg, read-out: effective half-life based on accumulation (converted)): 16.9 to 24.7 h | time of maximal pharmacodynamic response on KSS, DSST, PVT ([2]; postdose, coinciding with Cmax): ~2 h | measures of sleepiness (KSS, DSST, PVT) ([2]; single morning doses 1-200 mg): general dose-response relationship | AUC(0-t) ([3]; 2.5 mg, single 2.5 mg daily dose, read-out: mean AUC(0-24)): 57 to 60 ng·h/mL | AUC(0-t) ([3]; 2.5 mg, single 2.5 mg daily dose, read-out: mean AUC(0-t)): 80 to 95 ng·h/mL | AUC(0-t) ([3]; 5 mg, single 5 mg daily dose, read-out: mean AUC(0-24)): 95 to 110 ng·h/mL | AUC(0-t) ([3]; 5 mg, single 5 mg daily dose, read-out: mean AUC(0-t)): ~128 ng·h/mL | AUC(0-t) ([3]; 10 mg, single 10 mg daily dose, read-out: mean AUC(0-24)): 160 to 190 ng·h/mL | AUC(0-t) ([3]; 10 mg, single 10 mg daily dose, read-out: mean AUC(0-t)): 280 to 510 ng·h/mL | AUC(0-inf) ([3]; single 2.5 mg daily dose): 80 to 103 ng·h/mL | Cmax ([3]; single 2.5 mg daily dose): 10 to 18 ng/mL | half-life ([3]; single 2.5 mg daily dose): 30 to 37 h | Tmax ([3]; single 2.5 mg daily dose): 1 to 2 h | AUC(0-inf) ([3]; single 5 mg daily dose): ~150 ng·h/mL | Cmax ([3]; single 5 mg daily dose): 19 to 23 ng/mL | half-life ([3]; single 5 mg daily dose): ~31 h | Tmax ([3]; single 5 mg daily dose): 1 to 2 h | AUC(0-inf) ([3]; single 10 mg daily dose): 310 to 530 ng·h/mL | Cmax ([3]; single 10 mg daily dose): 30 to 58 ng/mL | half-life ([3]; single 10 mg daily dose): 56 to 60 h | Tmax ([3]; single 10 mg daily dose): 1 to 3.25 h
